Results published in ChEMBL document CHEMBL1201862, “PubChem BioAssay data set” (2004).
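Protocol summary: plate cells (96-well), add compound at 5 concentrations, incubate 48 h, interpolate endpoints linearly. GI50 marks 50% less growth.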 Active and inactive are the calls of the source. Cut-off read from the data, not from the text of the source: active = GI50 up to about 1.1 µM and inactive = higher.

Legend:
Experiment in all cases: NCI tumour cell line growth inhibition, 48 h
HOP-62 = tested on: HOP-62
SNB-75 = tested on: SNB-75
SK-MEL-5 = tested on: SK-MEL-5
SK-MEL-28 = tested on: SK-MEL-28
HCT-15 = tested on: HCT-15
U-251 = tested on: U-251
OVCAR-4 = tested on: OVCAR-4
RPMI-8226 = tested on: RPMI-8226
CCRF-CEM = tested on: CCRF-CEM
A549 = tested on: A549
OVCAR-8 = tested on: OVCAR-8
ACHN = tested on: ACHN
NCI-H226 = tested on: NCI-H226
SN12C = tested on: SN12C
M14 = tested on: M14
TK-10 = tested on: TK-10
COLO 205 = tested on: COLO 205
CAKI-1 = tested on: CAKI-1
MOLT-4 = tested on: MOLT-4
SF-539 = tested on: SF-539

Compound: CCCCOC(=O)/C(CC(=O)C=C(C)C)=N\NS(=O)(=O)c1ccc(C)cc1
- GI50 (HOP-62): > 100 µM (inactive)
- GI50 (SNB-75): > 100 µM (inactive)
- GI50 (SK-MEL-5): > 100 µM (inactive)
- GI50 (SK-MEL-28): > 100 µM (inactive)
- GI50 (HCT-15): 62.4 µM
- GI50 (U-251): > 100 µM (inactive)
- GI50 (OVCAR-4): > 100 µM (inactive)
- GI50 (RPMI-8226): > 100 µM (inactive)
- GI50 (CCRF-CEM): > 100 µM (inactive)
- GI50 (A549): > 100 µM (inactive)
- GI50 (OVCAR-8): > 100 µM (inactive)
- GI50 (ACHN): > 100 µM (inactive)
- GI50 (NCI-H226): > 100 µM (inactive)
- GI50 (SN12C): > 100 µM (inactive)
- GI50 (M14): > 100 µM (inactive)
- GI50 (TK-10): > 100 µM (inactive)
- GI50 (COLO 205): 46.1 µM (inactive)
- GI50 (CAKI-1): > 100 µM (inactive)
- GI50 (MOLT-4): > 100 µM (inactive)
- GI50 (SF-539): > 100 µM (inactive)

Compound: Cn1c(=S)c2nc(SCCCc3ccccc3)[nH]c2n(C)c1=O
- GI50 (HOP-62): 17.3 µM (inactive)
- GI50 (SNB-75): 22.6 µM (inactive)
- GI50 (SK-MEL-5): 6.67 µM (inactive)
- GI50 (SK-MEL-28): 46.6 µM (inactive)
- GI50 (HCT-15): 29.8 µM
- GI50 (U-251): 23.2 µM (inactive)
- GI50 (OVCAR-4): 13 µM (inactive)
- GI50 (RPMI-8226): 15.1 µM (inactive)
- GI50 (CCRF-CEM): 6.59 µM (inactive)
- GI50 (A549): 13.7 µM (inactive)
- GI50 (OVCAR-8): 28.2 µM (inactive)
- GI50 (ACHN): 27.2 µM (inactive)
- GI50 (NCI-H226): 21.5 µM (inactive)
- GI50 (SN12C): 26.5 µM (inactive)
- GI50 (M14): 17.6 µM (inactive)
- GI50 (TK-10): 17.4 µM (inactive)
- GI50 (COLO 205): 12.6 µM (inactive)
- GI50 (CAKI-1): 20.9 µM (inactive)
- GI50 (MOLT-4): 13.5 µM (inactive)
- GI50 (SF-539): 27.9 µM (inactive)

Compound: Cn1c(=O)c2c(ncn2Cc2ccc(O)c([N+](=O)[O-])c2)n(C)c1=O
- GI50 (HOP-62): > 100 µM (inactive)
- GI50 (SNB-75): > 100 µM (inactive)
- GI50 (SK-MEL-5): > 100 µM (inactive)
- GI50 (SK-MEL-28): > 100 µM (inactive)
- GI50 (HCT-15): > 100 µM
- GI50 (U-251): > 100 µM (inactive)
- GI50 (OVCAR-4): > 100 µM (inactive)
- GI50 (RPMI-8226): > 100 µM (inactive)
- GI50 (CCRF-CEM): > 100 µM (inactive)
- GI50 (A549): > 100 µM (inactive)
- GI50 (OVCAR-8): > 100 µM (inactive)
- GI50 (ACHN): > 100 µM (inactive)
- GI50 (NCI-H226): > 100 µM (inactive)
- GI50 (SN12C): > 100 µM (inactive)
- GI50 (M14): > 100 µM (inactive)
- GI50 (TK-10): > 100 µM (inactive)
- GI50 (COLO 205): > 100 µM (inactive)
- GI50 (CAKI-1): > 100 µM (inactive)
- GI50 (MOLT-4): > 100 µM (inactive)
- GI50 (SF-539): > 100 µM (inactive)

Compound: CC(=O)N1CC2Nc3ccccc3C2CC1CO (stereo not given)
- GI50 (HOP-62): > 100 µM (inactive)
- GI50 (SNB-75): 17.7 µM (inactive)
- GI50 (SK-MEL-5): > 100 µM (inactive)
- GI50 (SK-MEL-28): > 100 µM (inactive)
- GI50 (HCT-15): > 100 µM
- GI50 (U-251): > 100 µM (inactive)
- GI50 (OVCAR-4): > 100 µM (inactive)
- GI50 (RPMI-8226): > 100 µM (inactive)
- GI50 (CCRF-CEM): > 100 µM (inactive)
- GI50 (A549): > 100 µM (inactive)
- GI50 (OVCAR-8): > 100 µM (inactive)
- GI50 (ACHN): > 100 µM (inactive)
- GI50 (NCI-H226): > 100 µM (inactive)
- GI50 (SN12C): > 100 µM (inactive)
- GI50 (M14): > 100 µM (inactive)
- GI50 (TK-10): > 100 µM (inactive)
- GI50 (COLO 205): > 100 µM (inactive)
- GI50 (CAKI-1): > 100 µM (inactive)
- GI50 (MOLT-4): > 100 µM (inactive)
- GI50 (SF-539): > 100 µM (inactive)

Compound: Cc1nn(C(=O)c2ccncc2)c2c1C(c1ccccc1O)SC(=N)N2 (stereo not given)
- GI50 (HOP-62): > 10 µM (inactive)
- GI50 (SNB-75): > 10 µM (inactive)
- GI50 (SK-MEL-5): > 10 µM (inactive)
- GI50 (SK-MEL-28): > 10 µM (inactive)
- GI50 (HCT-15): > 10 µM
- GI50 (U-251): > 10 µM (inactive)
- GI50 (OVCAR-4): > 10 µM (inactive)
- GI50 (RPMI-8226): > 10 µM (inactive)
- GI50 (CCRF-CEM): > 10 µM (inactive)
- GI50 (A549): > 10 µM (inactive)
- GI50 (OVCAR-8): > 10 µM (inactive)
- GI50 (ACHN): > 10 µM (inactive)
- GI50 (NCI-H226): > 10 µM (inactive)
- GI50 (SN12C): > 10 µM (inactive)
- GI50 (M14): > 10 µM (inactive)
- GI50 (TK-10): > 10 µM (inactive)
- GI50 (COLO 205): > 10 µM (inactive)
- GI50 (CAKI-1): > 10 µM (inactive)
- GI50 (MOLT-4): > 10 µM (inactive)
- GI50 (SF-539): > 10 µM (inactive)

Compound: CC(C)C1=CCC2C(=C1)CCC1C(C)(C(=O)O)CCCC21C (stereo not given)
- GI50 (HOP-62): > 100 µM (inactive)
- GI50 (SNB-75): > 100 µM (inactive)
- GI50 (SK-MEL-5): > 100 µM (inactive)
- GI50 (SK-MEL-28): > 100 µM (inactive)
- GI50 (HCT-15): > 100 µM
- GI50 (U-251): > 100 µM (inactive)
- GI50 (OVCAR-4): 56.8 µM (inactive)
- GI50 (RPMI-8226): 19.9 µM (inactive)
- GI50 (CCRF-CEM): > 100 µM (inactive)
- GI50 (A549): > 100 µM (inactive)
- GI50 (OVCAR-8): > 100 µM (inactive)
- GI50 (ACHN): 94.8 µM (inactive)
- GI50 (NCI-H226): > 100 µM (inactive)
- GI50 (SN12C): > 100 µM (inactive)
- GI50 (M14): > 100 µM (inactive)
- GI50 (TK-10): > 100 µM (inactive)
- GI50 (COLO 205): > 100 µM (inactive)
- GI50 (CAKI-1): > 100 µM (inactive)
- GI50 (MOLT-4): 63.1 µM (inactive)
- GI50 (SF-539): > 100 µM (inactive)

Compound: CC(C)N(C(=O)C12C3C4C1C1C2C3C41C(=O)N(C(C)C)C(C)C)C(C)C (stereo not given)
- GI50 (HOP-62): > 50 µM (inactive)
- GI50 (SNB-75): > 50 µM (inactive)
- GI50 (SK-MEL-5): > 50 µM (inactive)
- GI50 (SK-MEL-28): > 50 µM (inactive)
- GI50 (HCT-15): > 50 µM
- GI50 (U-251): > 50 µM (inactive)
- GI50 (OVCAR-4): > 50 µM (inactive)
- GI50 (RPMI-8226): > 50 µM (inactive)
- GI50 (CCRF-CEM): > 50 µM (inactive)
- GI50 (A549): > 50 µM (inactive)
- GI50 (OVCAR-8): > 50 µM (inactive)
- GI50 (ACHN): > 50 µM (inactive)
- GI50 (NCI-H226): > 50 µM (inactive)
- GI50 (SN12C): > 50 µM (inactive)
- GI50 (M14): > 50 µM (inactive)
- GI50 (TK-10): > 50 µM (inactive)
- GI50 (COLO 205): > 50 µM (inactive)
- GI50 (CAKI-1): > 50 µM (inactive)
- GI50 (MOLT-4): > 50 µM (inactive)
- GI50 (SF-539): > 50 µM (inactive)

Compound: CSC(=S)Nc1cc(C)ccn1
- GI50 (HOP-62): > 100 µM (inactive)
- GI50 (SNB-75): 29 µM (inactive)
- GI50 (SK-MEL-5): 16.7 µM (inactive)
- GI50 (SK-MEL-28): > 100 µM (inactive)
- GI50 (HCT-15): > 100 µM
- GI50 (U-251): 67.8 µM (inactive)
- GI50 (OVCAR-4): 39.1 µM (inactive)
- GI50 (RPMI-8226): 97.7 µM (inactive)
- GI50 (CCRF-CEM): > 100 µM (inactive)
- GI50 (A549): > 100 µM (inactive)
- GI50 (OVCAR-8): > 100 µM (inactive)
- GI50 (ACHN): 70 µM (inactive)
- GI50 (NCI-H226): > 100 µM (inactive)
- GI50 (SN12C): 57.7 µM (inactive)
- GI50 (M14): > 100 µM (inactive)
- GI50 (TK-10): > 100 µM (inactive)
- GI50 (COLO 205): 50.8 µM (inactive)
- GI50 (CAKI-1): > 100 µM (inactive)
- GI50 (MOLT-4): > 100 µM (inactive)
- GI50 (SF-539): > 100 µM (inactive)

Compound: CN(C)Cc1cc(C(=O)/C=C/c2ccc(Cl)cc2Cl)cc(CN(C)C)c1O
- GI50 (HOP-62): 3.54 µM (inactive)
- GI50 (SNB-75): 2.95 µM (inactive)
- GI50 (SK-MEL-5): 1.96 µM (inactive)
- GI50 (SK-MEL-28): 6.25 µM (inactive)
- GI50 (HCT-15): 3.17 µM
- GI50 (U-251): 3.52 µM (inactive)
- GI50 (OVCAR-4): 2.22 µM (inactive)
- GI50 (RPMI-8226): 3.85 µM (inactive)
- GI50 (CCRF-CEM): 2.16 µM (inactive)
- GI50 (A549): 2.89 µM (inactive)
- GI50 (OVCAR-8): 2.33 µM (inactive)
- GI50 (ACHN): 2.06 µM (inactive)
- GI50 (NCI-H226): 8.57 µM (inactive)
- GI50 (SN12C): 1.78 µM (inactive)
- GI50 (M14): 2.75 µM (inactive)
- GI50 (TK-10): 11.5 µM (inactive)
- GI50 (COLO 205): 1.44 µM (inactive)
- GI50 (CAKI-1): 2.36 µM (inactive)
- GI50 (MOLT-4): 1.88 µM (inactive)
- GI50 (SF-539): 4.4 µM (inactive)

Compound: C=C1C(=O)O[C@@H]2/C=C(/C)[C@@H](OC(C)=O)C[C@@H](O)/C(C)=C\[C@@H](OC(=O)[C@]3(C)O[C@@H]3C)[C@@H]12
- GI50 (HOP-62): 40.6 µM (inactive)
- GI50 (SNB-75): 19.5 µM (inactive)
- GI50 (SK-MEL-5): 11.4 µM (inactive)
- GI50 (SK-MEL-28): 10.9 µM (inactive)
- GI50 (HCT-15): 12.9 µM
- GI50 (U-251): 17.5 µM (inactive)
- GI50 (OVCAR-4): 21.9 µM (inactive)
- GI50 (RPMI-8226): 5.78 µM (inactive)
- GI50 (CCRF-CEM): 2.38 µM (inactive)
- GI50 (A549): 31.2 µM (inactive)
- GI50 (OVCAR-8): 13.1 µM (inactive)
- GI50 (ACHN): 11.8 µM (inactive)
- GI50 (NCI-H226): 40.4 µM (inactive)
- GI50 (SN12C): 12.3 µM (inactive)
- GI50 (M14): 12.5 µM (inactive)
- GI50 (TK-10): 15.6 µM (inactive)
- GI50 (COLO 205): 6.89 µM (inactive)
- GI50 (CAKI-1): 3.48 µM (inactive)
- GI50 (MOLT-4): 3.91 µM (inactive)
- GI50 (SF-539): 21.2 µM (inactive)
